Source: patent US20240350503A1, “COMPOUNDS FOR TREATMENT OF VIRAL INFECTIONS BY NEUROTROPIC VIRUS” (priority 2021, published 2024)
“Also recorded” adds a separate entry of the source.

System: SARS-CoV-2
Type: cell-based, SARS-CoV-2 alpha variant

c1ccc(-c2ccc(CNc3nc(-c4ccccn4)nnc3-c3ccccc3)cc2)cc1 [ML228]
SARS-CoV-2 replication (virus N2 RNA level): strongly reduced; also recorded: significantly decreased
